Values of other authors in article PMC6696021, “Combined Ensemble Docking and Machine Learning in Identification of Therapeutic Agents with Potential Inhibitory Effect on Human CES1” (Molecules, 2019).

Molecular target: CES1
Set-up: method as in earlier work
Conditions: Table S1, bioactivity from ChEMBL database; read-out: Ki_Nanomolar; cited from earlier work

Compound: O=C1C=Cc2ccccc2C1=O [1-2-NAPHTHOQUINONE]
- Ki: 930 nM

Compound: O=C1C(=O)c2ccccc2-c2ccccc21 [9-10-PHENANTHRENEQUINONE]
- Ki: 2.5 nM

Compound: O=C1C(=O)c2cccc3cccc1c23 [ACENAPHTHOQUINONE]
- Ki: 31 nM

Compound: O=C(c1ccccc1)C(O)c1ccccc1 (stereo not drawn) [BENZOIN]
- Ki: 30400 nM

Compound: CCCCCCCCCCC(=O)C(F)(F)F [CHEMBL86668]
- Ki: 76.8 nM

Compound: CCCCCCCCSCC(=O)C(F)(F)F [CHEMBL89506]
- Ki: 97.4 nM

Compound: O=C1C(=O)N(Cc2ccccc2)c2ccccc21 [CHEMBL115581]
- Ki: 1700 nM

Compound: O=C1Nc2ccc(Br)cc2C1=O [CHEMBL115897]
- Ki: 31700 nM

Compound: O=C(C(=O)c1ccc2ccccc2c1)c1ccc2ccccc2c1 [CHEMBL189162]
- Ki: 256 nM

Compound: O=C(c1cccs1)C(O)c1cccs1 (stereo not drawn) [CHEMBL190660]
- Ki: 3100 nM

Compound: O=C(C(=O)c1cc(Br)cs1)c1cc(Br)cs1 [CHEMBL190672]
- Ki: 20.8 nM

Compound: COc1ccc(C(=O)C(=O)c2ccc(OC)cc2)cc1 [CHEMBL191513]
- Ki: 3400 nM

Compound: O=C(C(=O)c1cccc([N+](=O)[O-])c1)c1cccc([N+](=O)[O-])c1 [CHEMBL191796]
- Ki: 18100 nM

Compound: COc1ccc(C(=O)C(=O)c2ccccc2Cl)cc1OC [CHEMBL191822]
- Ki: 3310 nM

Compound: Cc1ccc(C(=O)C(=O)c2ccccc2)cc1[N+](=O)[O-] [CHEMBL191847]
- Ki: 223 nM

Compound: O=C(C(=O)c1ccc(Cl)cc1)c1ccc(Cl)cc1 [CHEMBL192139]
- Ki: 25100 nM

Compound: O=C(C(=O)c1ccc(Cl)cc1)c1ccccc1 [CHEMBL192180]
- Ki: 37 nM

Compound: O=C(C(=O)c1ccc(CBr)cc1)c1ccccc1 [CHEMBL192241]
- Ki: 77.6 nM

Compound: Cc1ccc(C(=O)C(=O)c2ccc(Cl)cc2)cc1 [CHEMBL192252]
- Ki: 159 nM

Compound: CC(=O)C(=O)c1ccccc1 [CHEMBL192258]
- Ki: 5270 nM

Compound: O=C(C(=O)c1ccc(F)cc1)c1ccc(F)cc1 [CHEMBL192410]
- Ki: 230 nM

Compound: COc1ccc(C(=O)C(=O)c2ccccc2)cc1 [CHEMBL192474]
- Ki: 174 nM

Compound: O=C(C(=O)c1ccc([N+](=O)[O-])cc1)c1ccccc1 [CHEMBL192589]
- Ki: 214 nM

Compound: O=C(C(=O)c1ccc(Br)s1)c1ccc(Br)s1 [CHEMBL192592]
- Ki: 142 nM

Compound: Cc1ccc(C(=O)C(=O)c2ccc(C)cc2)cc1 [CHEMBL192625]
- Ki: 535 nM

Compound: Cc1ccc(C(=O)C(=O)c2ccccc2)cc1C [CHEMBL193140]
- Ki: 79.2 nM

Compound: O=C(C(=O)c1cc(F)c(F)c(F)c1)c1cc(F)c(F)c(F)c1 [CHEMBL193180]
- Ki: 405 nM

Compound: O=C(C(=O)c1ccc(Br)cc1)c1ccc(Br)cc1 [CHEMBL193228]
- Ki: 66700 nM

Compound: O=C(C(=O)c1cc(F)cc(F)c1)c1cc(F)cc(F)c1 [CHEMBL193229]
- Ki: 79.7 nM

Compound: O=C(C(=O)c1c(Cl)c(Cl)c(Cl)c(Cl)c1Cl)c1c(F)c(F)c(F)c(F)c1F [CHEMBL195713]
- Ki: 1690 nM

Compound: COc1cc(NCN2C(=O)C(=O)c3ccccc32)cc(OC)c1OC [CHEMBL221362]
- Ki: 19500 nM

Compound: O=C1Nc2c(Cl)cccc2C1=O [CHEMBL222190]
- Ki: 11400 nM

Compound: O=C1Nc2c(ccc(Cl)c2Cl)C1=O [CHEMBL222292]
- Ki: 9400 nM

Compound: CCCCCCCCCCCCN1C(=O)C(=O)c2ccccc21 [CHEMBL222644]
- Ki: 10 nM

Compound: O=C1C(=O)N(CNc2ccc(Cl)cc2)c2ccccc21 [CHEMBL222712]
- Ki: 610 nM

Compound: O=C1C(=O)N(Cc2ccc(Cc3ccc(CN4C(=O)C(=O)c5ccccc54)cc3)cc2)c2ccccc21 [CHEMBL222752]
- Ki: 8 nM

Compound: Cc1ccc(NCN2C(=O)C(=O)c3ccccc32)cc1 [CHEMBL222851]
- Ki: 2650 nM

Compound: O=C1Nc2cc(Cl)c(Cl)cc2C1=O [CHEMBL222988]
- Ki: 21000 nM

Compound: O=C1C(=O)N(CCBr)c2ccccc21 [CHEMBL223000]
- Ki: 290 nM

Compound: CC(=O)N1C(=O)C(=O)c2ccccc21 [CHEMBL223001]
- Ki: 36000 nM

Compound: O=C1Nc2c(Cl)ccc(Cl)c2C1=O [CHEMBL223039]
- Ki: 590 nM

Compound: C=C(C)CN1C(=O)C(=O)c2cc(Br)ccc21 [CHEMBL225169]
- Ki: 66 nM

Compound: O=C(C(=O)C1CCCCC1)C1CCCCC1 [CHEMBL235287]
- Ki: 38.5 nM

Compound: O=C1Cc2ccccc2C1=O [CHEMBL235288]
- Ki: 5240 nM

Compound: O=C1C(=O)c2ccc([N+](=O)[O-])c3c([N+](=O)[O-])ccc1c23 [CHEMBL235289]
- Ki: 570 nM

Compound: O=C1C(=O)c2cccc3c2N(CCC3)C1=O [CHEMBL235290]
- Ki: 5380 nM

Compound: O=C1C(=O)c2c3ccccc3cc3cccc1c23 [CHEMBL235503]
- Ki: 1.5 nM

Compound: O=C1C(=O)c2cccnc2-c2ncccc21 [CHEMBL235504]
- Ki: 5400 nM

Compound: O=C1C(=O)c2ccccc2CCc2ccccc21 [CHEMBL235931]
- Ki: 2980 nM

Compound: O=C(C(=O)c1ccc([N+](=O)[O-])cc1)c1ccc([N+](=O)[O-])cc1 [CHEMBL236340]
- Ki: 9800 nM

Compound: O=S(=O)(Nc1ccc(NS(=O)(=O)c2ccc(Cl)cc2)cc1)c1ccc(Cl)cc1 [CHEMBL254426]
- Ki: 13700 nM

Compound: CCCCCCCCCCSCC(=O)C(F)(F)F [CHEMBL270374]
- Ki: 66.4 nM

Compound: CCCCCCCCCCCCSCC(=O)C(F)(F)F [CHEMBL270375]
- Ki: 39.1 nM

Compound: CCCCC(=O)C(C)=O [CHEMBL364588]
- Ki: 16900 nM

Compound: O=C1C(=O)C(Cl)=C(Cl)C(Cl)=C1Cl [CHEMBL364729]
- Ki: 5440 nM

Compound: COC(OC)(C(=O)c1ccccc1)c1ccccc1 [CHEMBL364734]
- Ki: 15300 nM

Compound: CC(C)(C)C1=CC(=O)C(=O)C(C(C)(C)C)=C1 [CHEMBL365161]
- Ki: 88.6 nM

Compound: O=C(C(=O)c1ccccc1Cl)c1ccccc1Cl [CHEMBL365392]
- Ki: 1650 nM

Compound: O=C(C(=O)c1cccs1)c1cccs1 [CHEMBL365445]
- Ki: 433 nM

Compound: O=C(O)c1ccc(C(=O)C(=O)c2ccccc2)cc1 [CHEMBL370059]
- Ki: 524 nM

Compound: O=C(C(=O)c1ccco1)c1ccco1 [CHEMBL371181]
- Ki: 3610 nM

Compound: Cc1ccc(C(=O)C(=O)c2ccccc2)cc1 [CHEMBL371858]
- Ki: 125 nM

Compound: O=C(C(=O)c1ccsc1)c1ccsc1 [CHEMBL372716]
- Ki: 1050 nM

Compound: O=C(C(=O)c1ccccn1)c1ccccn1 [CHEMBL373345]
- Ki: 245 nM

Compound: O=C1C(=O)N(CNc2ccccc2Br)c2ccccc21 [CHEMBL374758]
- Ki: 36000 nM

Compound: O=C1C(=O)N(Cc2ccc(Cl)c(Cl)c2)c2ccccc21 [CHEMBL375126]
- Ki: 31 nM

Compound: O=C1C(=O)N(CCI)c2ccccc21 [CHEMBL376518]
- Ki: 130 nM

Compound: O=C1C(=O)N(CNc2ccc(Br)cc2)c2ccccc21 [CHEMBL385132]
- Ki: 580 nM

Compound: O=C1Nc2cc(Cl)cc(Cl)c2C1=O [CHEMBL385800]
- Ki: 890 nM

Compound: O=C1C(=O)N2CCCc3cccc1c32 [CHEMBL395654]
- Ki: 1540 nM

Compound: O=C1C(=O)c2sccc2-c2ccsc21 [CHEMBL398109]
- Ki: 150 nM

Compound: CCCCSCC(=O)C(F)(F)F [CHEMBL402615]
- Ki: 400 nM

Compound: COc1cccc(C(=O)C(=O)c2cccc(OC)c2)c1 [CHEMBL435109]
- Ki: 1540 nM

Compound: CCCCCCSCC(=O)C(F)(F)F [CHEMBL440542]
- Ki: 168 nM

Compound: CCCCCCOCC(O)(O)C(F)(F)F [CHEMBL449475]
- Ki: 1660 nM

Compound: CCCCCCS(=O)(=O)CC(O)(O)C(F)(F)F [CHEMBL449775]
- Ki: 4890 nM

Compound: CCCCCCCC[S+]([O-])CC(O)(O)C(F)(F)F (stereo not drawn) [CHEMBL460806]
- Ki: 7400 nM

Compound: CCCCCCCCS(=O)(=O)CC(O)(O)C(F)(F)F [CHEMBL460807]
- Ki: 757 nM

Compound: CCCCCC[S+]([O-])CC(O)(O)C(F)(F)F (stereo not drawn) [CHEMBL460808]
- Ki: 39700 nM

Compound: O=C(CSCCc1ccccc1)C(F)(F)F [CHEMBL460809]
- Ki: 63.3 nM

Compound: CCCCCCCCCCCC[S+]([O-])CC(O)(O)C(F)(F)F (stereo not drawn) [CHEMBL463556]
- Ki: 953 nM

Compound: CCCCCCCCCC[S+]([O-])CC(O)(O)C(F)(F)F (stereo not drawn) [CHEMBL464002]
- Ki: 2620 nM

Compound: CCCCCCCCCCCCS(=O)(=O)CC(O)(O)C(F)(F)F [CHEMBL467450]
- Ki: 371 nM

Compound: CCCCCCCCCCS(=O)(=O)CC(O)(O)C(F)(F)F [CHEMBL467451]
- Ki: 397 nM

Compound: OC(O)(CSCCc1ccccc1)C(F)(F)F [CHEMBL510996]
- Ki: 6900 nM

Compound: O=C(Nc1cccc(C(=O)C(=O)c2ccccn2)c1)c1ccc(C(F)(F)F)cc1 [CHEMBL1629724]
- Ki: 437 nM

Compound: O=C(C(=O)c1ccccn1)c1cccc(NC(=O)c2ccc(Cl)cc2Cl)c1 [CHEMBL1630808]
- Ki: 279 nM

Compound: Cc1ccc(C(=O)Nc2cccc(C(=O)C(=O)c3ccccn3)c2)cc1 [CHEMBL1630810]
- Ki: 1030 nM

Compound: O=C(Nc1cccc(C(=O)C(=O)c2ccccn2)c1)c1ccc(F)c(F)c1 [CHEMBL1630811]
- Ki: 1240 nM

Compound: O=C(Nc1cccc(C(=O)C(=O)c2ccccn2)c1)c1cccc(Cl)c1 [CHEMBL1630814]
- Ki: 756 nM

Compound: O=C(Nc1cccc(C(=O)C(=O)c2ccccn2)c1)c1ccc(F)cc1 [CHEMBL1630816]
- Ki: 381 nM

Compound: O=C(Cc1ccccc1)C(=O)Cc1ccccc1 [CHEMBL1812850]
- Ki: 3080 nM

Compound: O=C(C(=O)C(Br)c1ccccc1)C(Br)c1ccccc1 (stereo not drawn) [CHEMBL1812851]
- Ki: 107 nM

Compound: O=C(Cc1ccccc1)C(=O)C(Br)c1ccccc1 (stereo not drawn) [CHEMBL1812852]
- Ki: 2630 nM

Compound: CCCC(=O)C(=O)CCC [CHEMBL1812854]
- Ki: 8060 nM

Compound: CCCCC(=O)C(=O)CCCC [CHEMBL1812855]
- Ki: 46.6 nM

Compound: CCCCCC(=O)C(=O)CCCCC [CHEMBL1812856]
- Ki: 3 nM

Compound: CCCCCCC(=O)C(=O)CCCCCC [CHEMBL1812857]
- Ki: 4.8 nM

Compound: CCCCCCCC(=O)C(=O)CCCCCCC [CHEMBL1812858]
- Ki: 7.6 nM

Compound: CCCCCCCCC(=O)C(=O)CCCCCCCC [CHEMBL1812859]
- Ki: 0.84 nM

Compound: CCC(=O)C(=O)c1ccccc1 [CHEMBL1812860]
- Ki: 1550 nM

Compound: CCCC(=O)C(=O)c1ccccc1 [CHEMBL1812861]
- Ki: 102 nM

Compound: CCCCC(=O)C(=O)c1ccccc1 [CHEMBL1812862]
- Ki: 26.1 nM

Compound: CCCCCC(=O)C(=O)c1ccccc1 [CHEMBL1812863]
- Ki: 6.68 nM

Compound: CCCCCCC(=O)C(=O)c1ccccc1 [CHEMBL1812864]
- Ki: 2.19 nM

Compound: O=C(O)[C@H]1O[C@@H](OC(=O)[C@H](c2ccccc2Cl)N2CCc3sccc3C2)[C@H](O)[C@@H](O)[C@@H]1O [CHEMBL3526940]
- Ki: 24800 nM

Compound: O=C(Cc1ccccc1Nc1c(Cl)cccc1Cl)O[C@@H]1O[C@H](C(=O)O)[C@@H](O)[C@H](O)[C@H]1O [CHEMBL3527338]
- Ki: 4320 nM

Compound: O=C1C(Cl)=C(Cl)C(=O)C(Cl)=C1Cl [CHLORANIL]
- Ki: 83.9 nM
